According to publication PMC8945686, “Anticancer Effects with Molecular Docking Confirmation of Newly Synthesized Isatin Sulfonamide Molecular Hybrid Derivatives against Hepatic Cancer Cell Lines” (Biomedicines, 2022):
Where “and” joins values, the source holds several entries; their conditions need not be identical. Identical values can stand only once.

Experiments:
HepG2 cells = experiment: MTT cytotoxicity assay on HepG2 cells; assay type: cell-based; details: Homo sapiens; for cytotoxicity at 100 ppm: 48 h, 100 p.p.m (μg/mL), read-out: % Death Rate at 100 p.p.m (μg/mL) HepG2; for IC50: HepG2, 48 h
Protocol: MTT-based cell viability assay was carried out to evaluate the antiproliferation potential of the target compounds on HCC cell lines (HepG2 and Huh7). The half maximal inhibitory concentration (IC50) values were calculated against DMSO non-treated HepG2 cells (negative control) and Dox-treated HepG2 cells (positive control). The assay was conducted using 3-(4, 5-di-MethylThiazol-2-yl)-2,5-diphenyl Tetrazolium bromide (MTT) to test cell viability, according to the method described by Mosmann with minor changes. The yellow MTT is reduced in the viable cells to purple formazan. The insoluble formazan is solubilized by DMSO to colored solution measured spectrophotometrically. Briefly, cells were seeded in a 96-well plate at density of 1 × 10^4 cells/well for 24 h in 5% CO2 incubator at 37 °C to allow their adherence. […] After incubation, 20 μL of a 5 mg/mL MTT solution were mixed with the contents of each well, and the plate was incubated for another 4 h. Then, the medium was suctioned, and the wells were washed with PBS. After 2 h of drying, 200 μL of DMSO was added to each well. The plate was set on a shaker to dissolve the formazan crystals. Then, the absorbance was measured spectrophotometrically at 570 nm with a reference wavelength of 630 nm using ELX800 UV universal microplate reader (BioTek Instruments Inc., VT, Santa Clara, CA, USA).
All experiment conditions were tested in three replicates. The % cell viability was calculated from the following equation: (mean absorbance of treated sample/mean absorbance of negative control sample) × 100. The % death rate = 100 -% cell viability, and the inhibitory concentration of 50% (IC50) was measured from the exponential curve of viability against concentration (dose–response curve).

heparanase = experiment: Heparanase level in HepG2 cell lysate (ELISA); assay type: cell-based, human; details: HepG2 treated at IC50, 48 h
Protocol: (§1) As previously described, with little modification, HepG2 cells were cultured in T25 flask until they reached 30% confluency. […] After treatment, cells were washed by PBS, trypsinized and centrifuged at 10,000 rpm. The formed pellets were washed twice with PBS and lysed in 1 mL ice-cold radio immunoprecipitation assay (RIPA) lysis buffer (50 mM Tris-HCl, pH 8.0, 150 mM NaCl, 1% Triton X-100, 0.5% sodium deoxycholate, 0.1% sodium dodecyl sulfate) and kept on ice for 20 min. Then, the mixture was centrifuged at 15,000 rpm for 15 min to remove any cell debris. The cell lysate was aliquoted and stored at −80 °C for determination of protein using Pierce BCA Protein Assay Kit (Thermo Fisher Scientific, Waltham/Boston, USA) according to manufacturer’s recommendations and determination of other biochemical parameters including EGFR, urokinase Plasminogen Activator (uPA), B-Cell Lymphoma-2 (Bcl-2), heparanase, and oxidative stress markers (glutathione; GSH and malonaldehyde; MDA).
(§2) Levels of EGFR [37] and heparanase in cell lysate were investigated using commercially available enzyme-linked immunosorbent assay (ELISA) kits supplied by Abcam (Cat. No. ab269558, ab256401, respectively). Levels of uPA [39] were measured using ELISA kit supplied by Creative Diagnostics (New York, USA, Cat. No. DEIA1630). Bcl-2 levels were determined using ELISA kit supplied by Zymed Laboratories, Carlsbad, California (Cat. No. 99-0042). Briefly, standards and samples were added to corresponding 96-well plate coated with suitable antibody. After the washing step, biotinylated anti-human antibody was added to each well. After washing away unbound biotinylated antibody, horseradish peroxidase (HRP)-conjugated streptavidin was pipetted into each well. A peroxidase substrate solution was added to all wells, after washing, and the color developed was proportionate to the amount of EGFR bound. Finally, the stop solution was added and the color intensity was measured at 450 nm.

[1] = system: B-Cell Lymphoma-2 (Bcl-2); experiment: Bcl-2 level in HepG2 cell lysate (ELISA); assay type: cell-based, human; details: HepG2 treated at IC50, 48 h
Protocol: as §1, §2

mice = experiment: In vivo acute (14-day) oral toxicity study; details: for S.ALT / S.AST / S.Creatinine / S.D.Bilirubin / S.T.Bilirubin / S.Urea: 14 days after single dose, doxorubicin 15 mg/kg I.P; for S.ALT / S.AST / S.Creatinine / S.D.Bilirubin / S.T.Bilirubin / S.Urea / Histopathology of liver and kidney tissues (H and E) versus control groups / Kidney histology (H and E photomicrographs) / Liver histology (H and E photomicrographs): compounds 250 mg/kg oral; for Histopathology of liver and kidney tissues (H and E) versus control groups / Kidney histology (H and E photomicrographs) / Liver histology (H and E photomicrographs) / Physical or abnormal changes (body weight, skin, fur, eyes, behavior, overall appearance): 14 days; for Histopathology of liver and kidney tissues (H and E) versus control groups / Kidney histology (H and E photomicrographs) / Liver histology (H and E photomicrographs): Dox 15 mg/kg i.p.; for Survival over the treatment period (14 days) / Physical or abnormal changes (body weight, skin, fur, eyes, behavior, overall appearance): single acute oral dose of 250 mg/kg
Excerpt: GPower 3.0.10 software was used to estimate the sample size needed for the experiment and the number of mice per group but, according to the Organization for Economic Cooperation and Development (OECD) Test Guidelines No. 407 (OECD, 2008 and updated 2017) and under the International Academy of Science’s Guide for the Care and Use of Laboratory Animals, as well as the ARRIVE guidelines, to use the least number of mice per group for the acute single dose oral toxicity test.
Animals were divided randomly into nine groups (5 animals per group). Before the experiment, the body weight (BW) of all mice was recorded. All mice were made to fast for 24 h and treated once (day zero) then carefully monitored for 14 days.
Normal control group: mice received saline orally once;
Negative control group: mice received vehicle (DMSO) orally once;
Positive control group: mice were injected with Dox (15 mg/kg BW, i.p.) once.
Isatin-sulfonamide-derivative-compound-treated groups (2a, 3a, 3d and 4b, 4c and 4d) of mice received 250 mg/kg BW of each orally once.
The animals’ BWs were recorded at the end of the 14 days of observation. Blood samples were collected from the retro-orbital plexus and allowed to clot. Sera were prepared by centrifugation at 4000 rpm for 15 min and then kept frozen at − 80 °C for liver and kidney function tests (LFTs and KFTs). Thereafter, mice were deprived of food overnight, euthanized, and sacrificed by cervical dislocation. Liver and kidney tissues were collected, washed with ice-cold saline, and weighed. Excised weighed livers and kidneys were fixed in a suitable buffer for histological examination.
Liver and kidney tissues were fixed in 10% neutral buffered formaldehyde overnight and then embedded in paraffin, […] in serial grades of alcohols, cleared in xylene, and were subjected to […], where 4 μm thick tissue sections were cut by rotatory microtome. Tissue sections were stained with hematoxylin and eosin (H and E) for histological examination using full HD light microscopic imaging system (Leica Microsystems GmbH, Wetzlar, Germany). Standard procedures for sample fixation and staining were done as previously described.

EGFR = EGFR level in HepG2 cell lysate (ELISA); assay type: cell-based, human; details: HepG2 treated at IC50, 48 h
Protocol: as §1, §2

[2] = system: urokinase Plasminogen Activator (uPA); experiment: uPA level in HepG2 cell lysate (ELISA); assay type: cell-based, human; details: HepG2 treated at IC50, 48 h
Protocol: as §1, §2

glutathione (GSH) = experiment: GSH level in HepG2 cell lysate (DTNB method); assay type: cell-based, human; details: HepG2 treated at IC50, 48 h
Protocol: as §1
Glutathione levels were determined using GSH Biodiagnostics kit (Cairo, Egypt). The method is based on the reduction of 5,5′dithiobis (2-nitrobenzoic acid) (DTNB) with glutathione (GSH) to produce a yellow compound. The reduced chromogen is directly proportional to GSH concentration and its absorbance was measured at 405 nm.

Cc1ccc(C(=O)CC2(O)C(=O)Nc3ccc(S(=O)(=O)N4CCCCC4)cc32)cc1 (centres unmarked) [Compound 3a, 3-hydroxy-3-(2-oxo-2-(p-tolyl)ethyl)-5-(piperidin-1-ylsulfonyl)indolin-2-one]
cytotoxicity at 100 ppm (HepG2 cells): 70.1%
IC50 (HepG2 cells): ~16.8 µM
Heparanase level in cell lysate (heparanase): 1262 ± 35 pmol/mg protein and 1262 ± 35 ^a*^,b* pmol/mg protein
Bcl-2 level in cell lysate [1]: 4.2 ± 0.1 nmol/mg protein and 4.2 ± 0.10 ^a*^,b* nmol/mg protein
S.ALT (mice): 27.05 ± 0.81 ^^ U/L
S.AST (mice): 36.78 ± 0.33 ^^ U/L
S.Creatinine (mice): 0.82 ± 0.03 ^^ mg/dL
S.D.Bilirubin (mice): 0.16 ± 0.002 ^^ mg/dL
S.T.Bilirubin (mice): 0.65 ± 0.026 ^^ mg/dL
S.Urea (mice): 51.25 ± 0.36 ^^ mg/dL
Histopathology of liver and kidney tissues (H and E) versus control groups (mice): no differences in the hepatic or renal tissue structures
Kidney histology (H and E photomicrographs) (mice): intact well-organized histological features of renal parenchyma
Liver histology (H and E photomicrographs) (mice): no inflammatory cell infiltrates
Survival over the treatment period (14 days) (mice): survived
Physical or abnormal changes (body weight, skin, fur, eyes, behavior, overall appearance) (mice): No physical or abnormal changes were observed
EGFR level in cell lysate (EGFR): 42 ± 2.3 pmol/mg protein and 42 ± 2.3 ^a*^,b* pmol/mg protein
uPA level in cell lysate [2]: 1258 ± 15 nmol/mg protein and 1258 ± 15 ^a* nmol/mg protein
GSH level in cell lysate (glutathione (GSH)): 1.6 ± 0.7 µmol/mg protein

CC(=O)Nc1ccc(C(=O)C=C2C(=O)Nc3ccc(S(=O)(=O)N4CCCCC4)cc32)cc1 [Compound 4b, N-(4-(2-(2-oxo-5-(piperidin-1-ylsulfonyl)indolin-3-ylidene)acetyl)phenyl)acetamide]
cytotoxicity at 100 ppm (HepG2 cells): 94.2%
IC50 (HepG2 cells): ~44.7 µM
Heparanase level in cell lysate (heparanase): 1827 ± 30 pmol/mg protein and 1827 ± 30 ^a*^, b* pmol/mg protein
Bcl-2 level in cell lysate [1]: 2.5 ± 0.04 nmol/mg protein and 2.5 ± 0.04 ^a,b* nmol/mg protein
S.ALT (mice): 27.95 ± 0.34 ^^ U/L
S.AST (mice): 35.18 ± 0.47 ^^ U/L
S.Creatinine (mice): 0.88 ± 0.06 ^^ mg/dL
S.D.Bilirubin (mice): 0.17 ± 0.001 ^^ mg/dL
S.T.Bilirubin (mice): 0.70 ± 0.013 ^^ mg/dL
S.Urea (mice): 62.60 ± 3.64 ^^ mg/dL
Histopathology of liver and kidney tissues (H and E) versus control groups (mice): no differences in the hepatic or renal tissue structures
Kidney histology (H and E photomicrographs) (mice): almost intact histological features of renal parenchyma
Liver histology (H and E photomicrographs) (mice): apparently intact hepatocytes
Survival over the treatment period (14 days) (mice): survived
Physical or abnormal changes (body weight, skin, fur, eyes, behavior, overall appearance) (mice): No physical or abnormal changes were observed
EGFR level in cell lysate (EGFR): 87.49 ± 3.4 ^a*^,b* pmol/mg protein
uPA level in cell lysate [2]: 1916 ± 40 nmol/mg protein and 1916 ± 40 ^a*^,b* nmol/mg protein
GSH level in cell lysate (glutathione (GSH)): 1.1 ± 0.7 µmol/mg protein

CC(=O)Nc1cccc(C(=O)C=C2C(=O)Nc3ccc(S(=O)(=O)N4CCCCC4)cc32)c1 [Compound 4c, N-(3-(2-(2-oxo-5-(piperidin-1-ylsulfonyl)indolin-3-ylidene)acetyl)phenyl)acetamide]
cytotoxicity at 100 ppm (HepG2 cells): 95.6%
IC50 (HepG2 cells): ~39.7 µM
Heparanase level in cell lysate (heparanase): 1449 ± 12.5 pmol/mg protein and 1449 ± 12.5 ^a*^,b* pmol/mg protein
Bcl-2 level in cell lysate [1]: 3.6 ± 0.11 nmol/mg protein and 3.6 ± 0.11 ^a*^,b* nmol/mg protein
S.ALT (mice): 28.41 ± 0.28 ^^ U/L
S.AST (mice): 37.35 ± 1.47 ^^ U/L
S.Creatinine (mice): 0.79 ± 0.04 ^^ mg/dL
S.D.Bilirubin (mice): 0.16 ± 0.007 ^^ mg/dL
S.T.Bilirubin (mice): 0.73 ± 0.014 ^^ mg/dL
S.Urea (mice): 55.76 ± 5.64 ^^ mg/dL
Histopathology of liver and kidney tissues (H and E) versus control groups (mice): no differences in the hepatic or renal tissue structures
Kidney histology (H and E photomicrographs) (mice): almost intact well-organized morphological features
Liver histology (H and E photomicrographs) (mice): almost intact histological features of hepatic parenchyma
Survival over the treatment period (14 days) (mice): survived
Physical or abnormal changes (body weight, skin, fur, eyes, behavior, overall appearance) (mice): No physical or abnormal changes were observed
EGFR level in cell lysate (EGFR): 54 ± 2.4 ^a*^,b* pmol/mg protein
uPA level in cell lysate [2]: 1729 ± 38 nmol/mg protein and 1729 ± 38 ^a*^,b* nmol/mg protein
GSH level in cell lysate (glutathione (GSH)): 2.1 ± 0.3 ^b* µmol/mg protein

COc1cccc2c1C(=O)c1c(O)c3c(c(O)c1C2=O)C[C@@](O)(C(=O)CO)C[C@@H]3O[C@H]1C[C@H](N)[C@H](O)[C@H](C)O1 [Doxorubicin, reference compound]
cytotoxicity at 100 ppm (HepG2 cells): 100%
IC50 (HepG2 cells): 21.6 ± 0.81 µM
Heparanase level in cell lysate (heparanase): 902.1 ± 21 ^a* pmol/mg protein
Bcl-2 level in cell lysate [1]: 1.7 ± 0.10 ^a* nmol/mg protein
S.ALT (mice): 52.97 ± 0.92 *^,# U/L
S.AST (mice): 46.93 ± 0.30 *^,# U/L
S.Creatinine (mice): 1.57 ± 0.02 *^,# mg/dL
S.D.Bilirubin (mice): 0.36 ± 0.026 *^,# mg/dL
S.T.Bilirubin (mice): 1.45 ± 0.072 mg/dL
S.Urea (mice): 83.27 ± 0.95 *^,# mg/dL
Histopathology of liver and kidney tissues (H and E) versus control groups (mice): hepatic and renal pathology were obvious
Kidney histology (H and E photomicrographs) (mice): dilatation of the cortical tubular segments
Liver histology (H and E photomicrographs) (mice): hepatocellular necrotic changes
EGFR level in cell lysate (EGFR): 27.5 ± 1.7 ^a* pmol/mg protein
uPA level in cell lysate ([2]; listed as Dox): 1244 ± 18 nmol/mg protein
uPA level in cell lysate ([2]; listed as Positive): 1244 ± 18 ^a* nmol/mg protein
GSH level in cell lysate (glutathione (GSH)): 0.8 ± 0.1 ^a* µmol/mg protein
